Common to all, as to format: cell-based, human
For test [1], the system named is VE-cadherin. The test is described as follows: IL-8 treatment of artificial tissue, phosphorylation of VE-Cadherin by immunoblot. Particulars: artificial tissue treated with IL-8 at 50, 100, 300, 600, 1000 ng/ml for 30 minutes; immunoblot (FIG. 3). The protocol:
(§1) Cell cultures: Three dimensional artificial tissues were created as described above in Example 1 using primary normal human microvascular endothelial cells from adult lung (hMVEC; Clonetics), and primary adult normal human dermal fibroblasts (NHDF; Clonetics). The cultures were set up in either 24-well plates or Transwell units (Becton Dickinson) with polyethylene tetraphthalate filters containing 4 μm pores. Cultures were maintained at 37° C. and of 5% CO2 for at least 2 weeks. Medium was changed 24 hours after the cultures were started and then fed every 48 hours.
(§2) Immunoblotting: SDS-PAGE was performed using 10% separating Doucet gels (Doucet, J., and J. Trifaro. A discontinous and highly porous sodium dodecyl sulfatepolyacrylamide slab gel system of high resolution. Anal. Biochem. (1988) 168:265-271.). Protein transfer to nitrocellulose membranes was performed using a wet-transfer apparatus (BioRad) at 100V for 45 min at room temperature. The membranes were blocked for 1 hour in 5% BSA in TTBS (0.05% Tween in Tris buffered saline) and incubated overnight at 4° C. in primary antibody diluted in 1% BSA in TTBS. The membranes were washed 3 times for 20 min each with TTBS, incubated in anti-mouse or anti-rabbit HRP (1:10,000) in 1% BSA for 1 hr, and washed 3 times for 20 minutes each with TTBS. The antibody bound to the membrane was visualized using ECL chemiluminescent kit (Amersham). […]
In general terms: A western blot detects proteins with antibodies after separation by electrophoresis.

Test [2] deals with MMP-9. Description: Gelatin zymogram assay of MMP-9 in IL-8 treated artificial tissue. Particulars: Cell/ECM extracts and culture medium (supernatants); samples collected 24 hours after IL-8 treatment (FIG. 4). The protocol:
as §1
Zymography: Zymography was performed using 10% denaturing polyacrylamide gels as previously described (Paech and Christiansen. (1994) In Cell biology: a laboratory handbook. (J. Celis, Ed.) V.3 pp.264-271 San Diego: Academic Press). Briefly, gels to test for gelatinolytic activity contained 1% gelatin (Sigma) and were cast 12 hours before the sample separation. Protein samples were separated at 4° C. with 10 mA constant current for each gel. The proteins were renatured using two washes of 15 minutes each in 2.5% Triton-X100 twice at RT. […]

Test [3] concerns PECAM-1. Description: IL-8 treatment of artificial tissue, phosphorylation of PECAM-1 by immunoblot. The following applies: artificial tissue treated with IL-8 at 50, 100, 300, 600, 1000 ng/ml for 30 minutes; immunoblot (FIG. 3). The procedure: as §1, §2

Consider one substance from US20030109920A1, “Engineered animal tissue” (The Regents of the University of California, priority 2001, published 2003).

Regarding “IL-8: human chemokine IL-8, used as test compound on the artificial tissue”, in test [1], the “phosphorylation of VE-cadherin in microvessels” value is “stimulates the phosphorylation”. In addition, in test [2], the MMP-9 activation entry is “increases MMP-9 production and activation in a dose-dependent manner”; the MMP-9 production entry is “increases MMP-9 production and activation in a dose-dependent manner”. The “phosphorylation of PECAM in microvessels” value in test [3] is on record as “stimulates the phosphorylation”.
